How the values were obtained:
[1] = Isometric squat rate of force development (RFD); type: in vivo, human; parameters: RFD50 ms / RFD50 ms Δ / RFD100 ms / RFD100 ms Δ / RFD200 ms / RFD200 ms Δ / RFD30 ms / RFD30 ms Δ: unit not given here; settings: for RFD30 ms Δ / RFD30 ms Δ (%) / RFD50 ms Δ / RFD50 ms Δ (%) / RFD100 ms Δ / RFD100 ms Δ (%) / RFD200 ms Δ / RFD200 ms Δ (%): baseline to W 8; for RFD30 ms ES (d) / RFD50 ms ES (d) / RFD100 ms ES (d) / RFD200 ms ES (d): effect size
Method: Isometric and isokinetic squats were performed using a mechanized squat device (Exerbotics eSq, Tulsa, Okla., USA) (31, 32). At the first assessment, each participant's preferred foot positioning was determined using a custom grid overlaid on the foot platform of the squat device. This foot positioning was recorded and utilized for all visits. No weight belts, knee wraps, or other aids were utilized during testing. Prior to testing, the participant's range of motion for isokinetic testing was determined. The range of motion was set to 90° between the thigh and lower leg at the bottom of the repetition and approximately 170° at the top of the repetition, as determined by a goniometer. The isometric testing included maximal effort pushes at 120° and 150° knee angles. Each participant was instructed to push against the device as hard and fast as possible while attempting to complete a squat movement. Two isometric pushes were performed at each knee angle, and each effort lasted approximately 2 to 3 seconds. After the isometric testing, a 3-repetition maximum isokinetic force production test was completed. Prior to testing, participants observed the movement of the machine and received verbal instruction regarding proper performance of the assessment. Each of the repetitions during the maximal isokinetic force production test consisted of a 4-second eccentric phase, followed by an approximately half-second pause at the 90° knee position and a 4-second concentric phase. During testing, the force signal was sampled from the load cell at 1 kHz (MP100; Biopac Systems, Inc, Santa Barbara, Calif., USA), stored on a personal computer, and processed off-line using custom-written software (LabVIEW, Version 11.0; National Instruments, Austin, Tex., USA). The scaled force signal was low-pass filtered, with a 10-Hz cutoff (zero-phase lag, fourth-order Butterworth filter). All subsequent analyses were conducted on the scaled and filtered force signal. For the isometric force production tests, the rate of force development (RFD) over specific time intervals (i.e. 30, 50, 100 and 200 ms) was calculated by manually specifying the onset of force production within the custom LabVIEW program. For each repetition of the maximum isokinetic force production test, isokinetic peak forces (PF) were determined as the highest mean 25-ms epoch for both concentric and eccentric testing (i.e. PFCONC and PFECC).

[2] = Percent body fat by underwater weighing, HMB without intermittent fasting (Panton et al.); type: in vivo, human; settings: 3 g/d Calcium-HMB without intermittent fasting + RT
Method: In an earlier study described in Panton et al. (54) trained and untrained females (n=18, 27±2.1 y, 62.3±2.2 kg) were randomized to 3 g/d Calcium-HMB without intermitted fasting. The HMB only group completed 4 weeks of supervised resistance training and trained three times per week. Body composition was measured before and after the 4 weeks of training using underwater weighing procedures (55). Percent body fat (BF %) was estimated from the Siri equation^5.

CC(C)(O)CC(=O)O [TRFHMB, β-hydroxy-β-methylbutyrate]
RFD30 ms ([1]; ITT, knee angle 120°, Baseline): 1638 ± 411 | RFD50 ms ([1]; ITT, knee angle 120°, Baseline): 2017 ± 472 | RFD100 ms ([1]; ITT, knee angle 120°, Baseline): 2621 ± 719 | RFD200 ms ([1]; ITT, knee angle 120°, Baseline): 3661 ± 503 | RFD30 ms ([1]; ITT, knee angle 120°, W 4): 2131 ± 457 | RFD50 ms ([1]; ITT, knee angle 120°, W 4): 2760 ± 506 | RFD100 ms ([1]; ITT, knee angle 120°, W 4): 3451 ± 759 | RFD200 ms ([1]; ITT, knee angle 120°, W 4): 4121 ± 475 | RFD30 ms ([1]; ITT, knee angle 120°, W 8): 2606 ± 494 | RFD50 ms ([1]; ITT, knee angle 120°, W 8): 3153 ± 510 | RFD100 ms ([1]; ITT, knee angle 120°, W 8): 4205 ± 774 | RFD200 ms ([1]; ITT, knee angle 120°, W 8): 4332 ± 472 | RFD30 ms Δ ([1]; ITT, knee angle 120°): 969 | RFD30 ms Δ (%) ([1]; ITT, knee angle 120°): 59% | RFD50 ms Δ ([1]; ITT, knee angle 120°): 1135 | RFD50 ms Δ (%) ([1]; ITT, knee angle 120°): 56% | RFD100 ms Δ ([1]; ITT, knee angle 120°): 1585 | RFD100 ms Δ (%) ([1]; ITT, knee angle 120°): 60% | RFD200 ms Δ ([1]; ITT, knee angle 120°): 671 | RFD200 ms Δ (%) ([1]; ITT, knee angle 120°): 18% | RFD30 ms ES (d) ([1]; ITT, knee angle 120°): 0.59 | RFD50 ms ES (d) ([1]; ITT, knee angle 120°): 0.64 | RFD100 ms ES (d) ([1]; ITT, knee angle 120°): 0.59 | RFD200 ms ES (d) ([1]; ITT, knee angle 120°): 0.38 | RFD30 ms ([1]; ITT, knee angle 150°, Baseline): 1922 ± 471 | RFD50 ms ([1]; ITT, knee angle 150°, Baseline): 2203 ± 703 | RFD100 ms ([1]; ITT, knee angle 150°, Baseline): 2694 ± 825 | RFD200 ms ([1]; ITT, knee angle 150°, Baseline): 3163 ± 491 | RFD30 ms ([1]; ITT, knee angle 150°, W 4): 2612 ± 420 | RFD50 ms ([1]; ITT, knee angle 150°, W 4): 2989 ± 482 | RFD100 ms ([1]; ITT, knee angle 150°, W 4): 3567 ± 750 | RFD200 ms ([1]; ITT, knee angle 150°, W 4): 3511 ± 447 | RFD30 ms ([1]; ITT, knee angle 150°, W 8): 2851 ± 469 | RFD50 ms ([1]; ITT, knee angle 150°, W 8): 3208 ± 468 | RFD100 ms ([1]; ITT, knee angle 150°, W 8): 3944 ± 754 | RFD200 ms ([1]; ITT, knee angle 150°, W 8): 3876 ± 443 | RFD30 ms Δ ([1]; ITT, knee angle 150°): 929 | RFD30 ms Δ (%) ([1]; ITT, knee angle 150°): 48% | RFD50 ms Δ ([1]; ITT, knee angle 150°): 1004 | RFD50 ms Δ (%) ([1]; ITT, knee angle 150°): 46% | RFD100 ms Δ ([1]; ITT, knee angle 150°): 1251 | RFD100 ms Δ (%) ([1]; ITT, knee angle 150°): 46% | RFD200 ms Δ ([1]; ITT, knee angle 150°): 713 | RFD200 ms Δ (%) ([1]; ITT, knee angle 150°): 23% | RFD30 ms ES (d) ([1]; ITT, knee angle 150°): 0.53 | RFD50 ms ES (d) ([1]; ITT, knee angle 150°): 0.45 | RFD100 ms ES (d) ([1]; ITT, knee angle 150°): 0.42 | RFD200 ms ES (d) ([1]; ITT, knee angle 150°): 0.41 | RFD30 ms ([1]; PP, knee angle 120°, Baseline): 1669 ± 662 | RFD50 ms ([1]; PP, knee angle 120°, Baseline): 2016 ± 758 | RFD100 ms ([1]; PP, knee angle 120°, Baseline): 2642 ± 1153 | RFD200 ms ([1]; PP, knee angle 120°, Baseline): 4079 ± 688 | RFD30 ms ([1]; PP, knee angle 120°, W 4): 2267 ± 723 | RFD50 ms ([1]; PP, knee angle 120°, W 4): 3028 ± 787 | RFD100 ms ([1]; PP, knee angle 120°, W 4): 3845 ± 1195 | RFD200 ms ([1]; PP, knee angle 120°, W 4): 4636 ± 648 | RFD30 ms ([1]; PP, knee angle 120°, W 8): 2917 ± 675 | RFD50 ms ([1]; PP, knee angle 120°, W 8): 3470 ± 675 | RFD100 ms ([1]; PP, knee angle 120°, W 8): 4629 ± 1111 | RFD200 ms ([1]; PP, knee angle 120°, W 8): 4824 ± 569 | RFD30 ms Δ ([1]; PP, knee angle 120°): 1248 | RFD30 ms Δ (%) ([1]; PP, knee angle 120°): 75% | RFD50 ms Δ ([1]; PP, knee angle 120°): 1454 | RFD50 ms Δ (%) ([1]; PP, knee angle 120°): 72% | RFD100 ms Δ ([1]; PP, knee angle 120°): 1987 | RFD100 ms Δ (%) ([1]; PP, knee angle 120°): 75% | RFD200 ms Δ ([1]; PP, knee angle 120°): 745 | RFD200 ms Δ (%) ([1]; PP, knee angle 120°): 18% | RFD30 ms ES (d) ([1]; PP, knee angle 120°): 0.71 | RFD50 ms ES (d) ([1]; PP, knee angle 120°): 0.77 | RFD100 ms ES (d) ([1]; PP, knee angle 120°): 0.66 | RFD200 ms ES (d) ([1]; PP, knee angle 120°): 0.45 | RFD30 ms ([1]; PP, knee angle 150°, Baseline): 2121 ± 770 | RFD50 ms ([1]; PP, knee angle 150°, Baseline): 2420 ± 1187 | RFD100 ms ([1]; PP, knee angle 150°, Baseline): 3072 ± 1377 | RFD200 ms ([1]; PP, knee angle 150°, Baseline): 3441 ± 708 | RFD30 ms ([1]; PP, knee angle 150°, W 4): 2845 ± 625 | RFD50 ms ([1]; PP, knee angle 150°, W 4): 3274 ± 715 | RFD100 ms ([1]; PP, knee angle 150°, W 4): 3940 ± 1178 | RFD200 ms ([1]; PP, knee angle 150°, W 4): 3613 ± 634 | RFD30 ms ([1]; PP, knee angle 150°, W 8): 3177 ± 622 | RFD50 ms ([1]; PP, knee angle 150°, W 8): 3572 ± 604 | RFD100 ms ([1]; PP, knee angle 150°, W 8): 4346 ± 1070 | RFD200 ms ([1]; PP, knee angle 150°, W 8): 4237 ± 558 | RFD30 ms Δ ([1]; PP, knee angle 150°): 1056 | RFD30 ms Δ (%) ([1]; PP, knee angle 150°): 50% | RFD50 ms Δ ([1]; PP, knee angle 150°): 1152 | RFD50 ms Δ (%) ([1]; PP, knee angle 150°): 48% | RFD100 ms Δ ([1]; PP, knee angle 150°): 1274 | RFD100 ms Δ (%) ([1]; PP, knee angle 150°): 41% | RFD200 ms Δ ([1]; PP, knee angle 150°): 796 | RFD200 ms Δ (%) ([1]; PP, knee angle 150°): 23% | RFD30 ms ES (d) ([1]; PP, knee angle 150°): 0.57 | RFD50 ms ES (d) ([1]; PP, knee angle 150°): 0.46 | RFD100 ms ES (d) ([1]; PP, knee angle 150°): 0.39 | RFD200 ms ES (d) ([1]; PP, knee angle 150°): 0.47 | BF % 4-week effect size (d) [2]: −0.15
